Experiment [1] has as its system Pseudomonas aeruginosa ATCC 27853 biofilm. Put plainly: MBEC assay (biofilm eradication, CFU log reduction). Format: cell-based, P. aeruginosa. Conditions: 48 h grown biofilm, 20 h treatment, CFU log reduction vs untreated. In outline:
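Biofilms were grown 48 h static at 37 °C in TSB from inocula at OD600 0.2, then treated 20 h at 37 °C with 1, 0.5, 0.25 or 0.125 mM compound in saline (Tween 80 and DMSO each 0.63–0.08%), four replicates per condition. Resuspended biofilm was serially diluted and plated on TSA for 24 h; log CFU reduction versus untreated, with ≥1 counted as significant, in two independent experiments.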

For experiment [2] the test system is unchanged. Put plainly: MBIC assay (biofilm inhibition, crystal violet). The experiment is classed as cell-based, P. aeruginosa. Conditions: 48 h incubation, absorbance 540 nm. As for the experimental part: The exact weighed amount was noted and the volume of solvent to reach a 80 mM dilution calculated. Half of the volume was added first, by adding Tween 80. In a second step, the other half of the volume DMSO was added and the closed tube inverted 5-10 times and then vortexed very thoroughly for at least 30 seconds. If after this procedure unsolved material was still visible, the tube was placed in a shaker at 37° C. at 150 rpm for at least 30 minutes. […] For the MBEC assay (method 1.3) the solution needs to be diluted to a final concentration of 2 mM in 0.9% saline solution and then further diluted to 1 mM, 0.5 mM, 0.25 mM and 0.125 mM in saline. Those dilutions were added as treatment to the 96 well plates with the grown biofilm (see method 3).
Frozen aliquots of Staphylococcus epidermis ATCC 35984 and Pseudomonas aeruginosa ATCC 27853 were used to inoculate a tryptic soy agar (TSA) plate and were incubated overnight at 37° C. After incubation 3-5 well-isolated colonies with the same morphology were selected from the TSA plate and resuspended in 2 mL 0.9% saline solution with 3-6 glass beads and vortexed. The optical density of the bacterial suspension was measured at 600 nm (OD600) with a spectrophotometer (Evolution™ 201/220 UV-Visible Spectrophotometer, Thermo Fisher Scientific) and diluted to an OD600 of 0.2. The MBIC assay was performed in a 96-microtiter plate. 50 μL of TSB was added into columns 2-11, and 100 μL to column 12 for sterility control. 100 μL of the 8 mM test compound solution (method 1) was added to column 1. A two-fold dilution series of the solution in TSB was achieved by resuspending 50 μL of the 8 mM solution from column 1 in column 2. This step was repeated until column 10. The respective concentration of Tween 80 and DMSO in column 1 is at 2.5%, which is two-fold diluted throughout the plate. 50 μL of the bacterial suspension was added to column 1-11. The microtiter plates were sealed with adhesive polyethylene film for sealing microplates (Diversified Biotech) and incubated for 48 h at 37° C. After incubation the supernatant is carefully removed and the well with the biofilm washed for one time with 100 μL 0.9% saline solution. 100 μL 0.1 M HCl was added and incubated for 1 h at room temperature to fix the biofilm. After incubation the HCl was removed and 100 μL crystal violet (0.1% v/v in water) was added and incubated for 30 min at room temperature. The unbound crystal violet was removed and the wells washed one time with 100 μL demineralized water. 100 μL 30% acetic acid was added and incubated for 1 h at 37° C. and 150 rpm. The solution was resuspended and transferred to a flat-bottom 96-well plate and the absorbance measured at 540 nm with the spectrophotometer. This assay was repeated two times in two independent experiments.

Experiment [3] concerns udder cleft wound. Nature of the experiment: In vivo udder cleft dermatitis test: wound assessment after spray treatment. Also noted: species or system cow. Conditions: for inflammation of the udder cleft wound after treatment: immediately after the treatment, later infection reduced and wound healed; for Conclusion (effect on udder cleft wound): over 60 days, all cows of the group.

In the case of `CCCS[S+]([O-])CCC` (centres unmarked) [Di-n-propyl thiosulfinate, S-propyl propane-1-sulfinothioate], the minimal effective concentration in experiment [1] (Pseudomonas aeruginosa, ATCC27853, read-out: P. aeruginosa MBEC mM with log reduction ≥1) worked out at 4 mM. The “P. aeruginosa MBIC90” value in experiment [2] was determined as 2 mM. Also, in experiment [3], the “inflammation of the udder cleft wound after treatment” value is reported as “fast inflammation reduction” and the “Conclusion (effect on udder cleft wound)” value is listed as “Positive effect”.
Turning to `CSS(C)(=O)=O` [Di-methyl thiosulfonate, methyl methane thiosulfonate], in experiment [1], the “P. aeruginosa MBEC mM with log reduction ≥1” value is listed as 2 mM. Besides, the “P. aeruginosa MBIC90” value in experiment [2] is given as 4 mM. In experiment [3], the “inflammation of the udder cleft wound after treatment” value is “fast inflammation reduction” and the “Conclusion (effect on udder cleft wound)” value is “Positive effect”.
